Assay results reported in US20140187618A1, “COMPOSITIONS, METHODS AND KITS USING FOR INDUCING OR ENHANCING NEUROGENESIS IN CELLS AND TISSUE” (Biocrescentia, LLC, priority 2012, published 2014).

Columns and labels:
[1] = in vivo; cited from earlier work
macrophages = details: cultured in vitro model; cited from earlier work
Leishmania amazonensis = details: cited from earlier work
[2] = test system: TNF-α, interleukin-6 and interleukin-12; details: mice treated with lipopolysaccharide; cited from earlier work
[3] = test system: neural stem cells in the dentate gyrus of the hippocampus; experiment: BrdU quantification of hippocampal stem cell proliferation in adult mice; design: species or system BalbC mice; details: in vivo and in vitro; summary statement
Description: (§1) Adult six to eight week old male BalbC mice were obtained and kept in cages at room temperature, allowed access to food and water ad libidum, and subjected to 12-hour light/darkness cycles. All procedures were conducted in accordance with the guide for laboratory animal care of the Institute of Biological Sciences/Federal University of Pará (ICB/UFPA) Ethics Committee.
(§2) For BrdU analysis, animal subjects were administered BrdU (50 mg/kg) and were euthanized, and then were perfused with saline and 4% paraformaldehyde (PFA). The brain tissues were dissected and fixed at 4° C. in 4% PFA for 12 hours, then cryoprotected in 20% sucrose. The brain tissues were sliced at 40 micrometers (microns, μm) in a cryostat. […]
To analyze hippocampal stem cell proliferation and effect of physalins on this proliferation, groups of subjects were administered a dose of 50 mg/kg BrdU intraperitoneally and different doses of PD. […] The total number of BrdU-positive cells in the subgranule layer of the hippocampus was quantified. The number of BrdU-positive cells was calculated by measuring the area (ten micrometers corresponds to two cell bodies) between the hilus and the hippocampal granule layer in each cut (Bastos et al. 2008 J. Ethnopharmacol. 118(2): pages 246-251). […]
A qualitative analysis of BrdU-labeled cells in the dentate gyrus of adult mice was also performed using fluorescence microscopy. […]

[4] = test system: hippocampus cells (nestin-positive cells); experiment: Nestin immunostaining of hippocampus cell culture; assay type: cell-based, Wistar rats; details: 10 μM of PD for 24 hours; control EGF and FGF-2 10 ng/ml
Description: The hippocampi of Wistar rats (post natal days one to five) were dissected and mechanically dissociated. Viable cells were plated in four wells of a multi-well culture dish (NUNC Inc.) at a density of 10^6 cells/well containing neurobasal medium without serum or growth factor. After 24 hours, the cells were washed and PD was added to the cells (treated group). Control cells (absent PD) were treated with 10 nanograms per milliliter (ng/ml) of each of EGF and FGF-2 only. Cultures were incubated at 37° C. with 5% CO2 and 95% atmospheric air.
Hippocampus cells were cultured with 10 μM of PD for 24 hours, and the cells were then immunostained for using an anti-nestin antibody. Nestin is an intermediate filament protein expressed in dividing cells during the early stages of development in the central nervous system (CNS), peripheral nervous system (PNS) and in myogenic and other tissues. Without being limited by any particular theory or mechanism of action, it is here envisioned that presence of nestin in hippocampus cells indicates the presence of progenitor stem cells.

[5] = test system: BrdU-positive cells in the subgranule layer of the hippocampus; experiment: BrdU quantification of hippocampal stem cell proliferation, dosing every 7 days for 90 days; assay type: in vivo, BalbC mice; details: 5 mg/kg every 7 days for 90 days
Description: as §1, §2
To further analyze and quantitate hippocampal stem cell proliferation, effect of physalins on this proliferation, and survival of subjects, groups of subjects were administered a dose of 50 mg/kg BrdU intraperitoneally and 5 mg/kg of PD or AE every 7 days for 90 days. […] The total number of BrdU-positive cells in the subgranule layer of the hippocampus was quantified. The number of BrdU-positive cells was calculated by measuring the area (ten micrometers corresponds to two cell bodies) between the hilus and the hippocampal granule layer in each cut by the method of Bastos et al. 2008 J. Ethnopharmacol. […]

| SMILES | macrophages activation by lipopolysaccharide and interferon-γ (macrophages) | nitric oxide production (macrophages) | growth of Leishmania amazonensis in macrophages infected with the parasite (Leishmania amazonensis) | other results |
| --- | --- | --- | --- | --- |
| CNCCC(Oc1ccc(C(F)(F)F)cc1)c1ccccc1 (stereo not shown) [fluoxetine] | – | – | – | reduction of stress-induced neurogenesis [1]: reverses or prevents the reduction of stress-induced neurogenesis |
| C[C@@]12C[C@H]3OC(=O)[C@@H]1CO[C@]14O[C@]5([C@H]2C1=O)[C@@](O)(CC[C@H]1[C@H]4C[C@H]2O[C@]24CC=CC(=O)[C@]14C)C(=O)O[C@@]35C [Physalin F] | inhibit macrophages activation | substantial reduction in nitric oxide production | inhibit the growth | – |
| C[C@]12C(=O)C=CCC1=CC[C@@H]1[C@@H]2CC[C@@]2(O)C(=O)O[C@@]3(C)[C@H]4C[C@@]5(C)[C@@H](CO[C@@]16O[C@]23[C@H]5C6=O)C(=O)O4 [Physalin B] | inhibit macrophages activation | substantial reduction in nitric oxide production | inhibit the growth | levels of TNF-α in serum [2]: significantly reduce levels; levels of interleukin-6 in serum [2]: significantly reduce levels; levels of interleukin-12 in serum [2]: significantly reduce levels |
| C[C@]12C(=O)C=CCC1C(O)CC1C2CC[C@]2(O)C(=O)O[C@@]3(C)[C@H]4C[C@@]5(C)C6C(=O)[C@]1(OC[C@H]5C(=O)O4)O[C@@]632 (stereo partly shown) [Physalin G] | inhibit macrophages activation | substantial reduction in nitric oxide production | – | – |
| C[C@@]12C[C@H]3OC(=O)[C@@H]1CO[C@]14O[C@]5([C@H]2C1=O)[C@@](O)(CC[C@H]1[C@H]4C[C@@H](O)[C@@]2(O)CC=CC(=O)[C@]12C)C(=O)O[C@@]35C [Physalin D] | – | – | – | neurogenic activity [3]: neurogenic activity in vivo and in vitro; number of nestin-positive cells in the hippocampus cell culture [4]: increased the number of nestin-positive cells; actively dividing cells in adult hippocampus tissues [5]: promotes the increase of actively dividing cells; cell survival [5]: improves cell survival for at least three months |
